# Assay results published in paper PMC7888603 (PLoS Pathogens, 2021).
# Entries after “also recorded” stand apart in the source; their conditions may differ. Read-outs that look alike come from different tables or passages of the source.
# Columns and labels:
# in vitro = details: human
# pseudotyped WT-EBOV [1] = test: microbe, parasite or virus in culture; type: cell-based, Ebola virus
# EBOV GP = details: cited from earlier work
# pseudotyped WT-MARV [2] = test: microbe, parasite or virus in culture; type: cell-based, Marburg virus; details: for IC50: Human immunodeficiency virus 1, A549, read-out: IC50 (µM) (MARV)
# [3] = test system: pseudotyped influenza H5N1; type: cell-based
# pseudotyped WT-MARV [4] = test: organism not typed; type: cell-based, Marburg virus; details: read-out: MARV Inhibition (%)
# pseudotyped WT-EBOV [5] = test: microbe, parasite or virus in culture; type: cell-based, Ebola virus; details: Zaire ebolavirus, read-out: EBOV Inhibition (%)
# [6] = test system: pseudotyped vesicular stomatitis virus (VSV); type: cell-based
# EBOV HR2 peptide ([…]) = EBOV HR2 peptide ([…]) (Zaire ebolavirus, UniProt Q05320); type: binding, Ebola virus; details: pH 5.2
# [7] = test system: lysotracker red accumulation in lysosomes, A549 cells; test: cells; type: cell-based, Human; details: for IC50: Homo sapiens, A549, read-out: IC50, inhibition of lysotracker red accumulation in lysosomes
# RAVN GPΔmucin = RAVN GPΔmucin (Lake Victoria marburgvirus, UniProt Q1PDC7); details: 200 µM
# Ebola = details: cited from earlier work
# lysosomes = details: cited from earlier work
# [8] = Zaire ebolavirus, A549, read-out: IC50 (µM) (EBOV)
compound,measurement,setting,value
CN1[C@@H]2CC[C@H]1C[C@@H](OC(c1ccccc1)c1ccccc1)C2 [Benztropine],CC50,in vitro,52.9 ± 6.1 µM
CC(C)COCC(CN(Cc1ccccc1)c1ccccc1)N1CCCC1 (stereo not drawn) [Bepridil],IC50,pseudotyped WT-EBOV [1]; [8],1.6 ± 0.8 µM
same,Kd,EBOV GP,290 µM
same,CC50,in vitro,34.7 ± 4.6 µM
same,IC50,pseudotyped WT-MARV [2],10 ± 2 µM
CCCCOc1cc(C(=O)NCCN(CC)CC)c2ccccc2n1 [Dibucaine],IC50,pseudotyped WT-EBOV [1]; [8],3.2 ± 0.2 µM
same,CC50,in vitro,67.1 ± 8 µM
same,IC50,pseudotyped WT-MARV [2],6 ± 2 µM
CNCCC(Oc1ccc(C(F)(F)F)cc1)c1ccccc1 (stereo not drawn) [Fluoxetine],inhibition of pseudotyped influenza H5N1,[3],no inhibition
same,inhibition at 0.625 µM,pseudotyped WT-MARV [4],35.7%
same,inhibition at 1.25 µM,pseudotyped WT-MARV [4],46.4%
same,inhibition at 2.5 µM,pseudotyped WT-MARV [4],62%
same,inhibition at 5 µM,pseudotyped WT-MARV [4],74.4%
same,inhibition at 10 µM,pseudotyped WT-MARV [4],88.8%
same,inhibition at 0.625 µM,pseudotyped WT-EBOV [5],6.94%
same,inhibition at 1.25 µM,pseudotyped WT-EBOV [5],21.4%
same,inhibition at 2.5 µM,pseudotyped WT-EBOV [5],44.8%
same,inhibition at 5 µM,pseudotyped WT-EBOV [5],55.7%
same,inhibition at 10 µM,pseudotyped WT-EBOV [5],79.2%
same,inhibition of pseudotyped vesicular stomatitis virus (VSV),[6],no inhibition
same,CC50,in vitro,28.7 ± 0.1 µM
same,binding to EBOV HR2 peptide (NOESY),EBOV HR2 peptide ([…]),"intermolecular NOEs, highlighted by red arrows, are observed"
CN(C)CCCN1c2ccccc2CCc2ccccc21 [Imipramine],IC50,pseudotyped WT-EBOV [1]; [8],2.6 ± 0.1 µM
same,Kd,EBOV GP,584 µM
same,CC50,in vitro,76.3 ± 7.4 µM
same,IC50,pseudotyped WT-MARV [2],6.4 ± 0.6 µM
CC(=O)N[C@@H](CC(C)C)C(=O)N[C@@H](CC(C)C)C(=O)N[C@H](C=O)CCCNC(=N)N [Leupeptin],IC50,pseudotyped WT-EBOV [1]; [8],0.35 ± 0.07 µM
same,CC50,in vitro,> 100 µM
same,IC50,pseudotyped WT-MARV [2],0.6 ± 0.1 µM
OCCOc1ccc(/C(=C(/CCCl)c2ccccc2)c2ccccc2)cc1 [Ospemifene],IC50,pseudotyped WT-EBOV [1]; [8],19 ± 10 µM
same,lysosome trapping,[7],no trapping at any concentration; also recorded: no effect
same,decrease in Tm of MARV (RAVN) GP,RAVN GPΔmucin,2 °C
same,CC50,A549 cells; human,57 µM
same,CC50,in vitro; CC50 (µM),56 µM
same,loss of potency for MARV,pseudotyped WT-MARV [2],35 fold
same,IC50,pseudotyped WT-MARV [2],35 ± 3 µM
Fc1ccc([C@@H]2CCNC[C@H]2COc2ccc3c(c2)OCO3)cc1 [Paroxetine],IC50,pseudotyped WT-EBOV [1]; [8],0.34 ± 0.05 µM
same,Kd,EBOV GP,650 µM
same,CC50,in vitro,23.1 ± 6.3 µM
same,IC50,pseudotyped WT-MARV [2],3.1 ± 0.1 µM
CN[C@H]1CC[C@@H](c2ccc(Cl)c(Cl)c2)c2ccccc21 [Sertraline],CC50,in vitro,22.6 ± 6.2 µM
CN(C)CCOc1ccc(/C(=C(/CCCl)c2ccccc2)c2ccccc2)cc1 [Toremifene],IC50,pseudotyped WT-EBOV [1]; [8],0.021 ± 0.009 µM
same,IC50,"pseudotyped WT-EBOV [1]; Zaire ebolavirus, A549, read-out: Toremifene IC50 (µM)",0.01 µM
same,IC50,[7],9.7 µM
same,inhibition at 0.625 µM,pseudotyped WT-MARV [4],-3.12%
same,inhibition at 1.25 µM,pseudotyped WT-MARV [4],-0.5%
same,inhibition at 2.5 µM,pseudotyped WT-MARV [4],23.1%
same,inhibition at 5 µM,pseudotyped WT-MARV [4],71.2%
same,inhibition at 10 µM,pseudotyped WT-MARV [4],99%
same,decrease in Tm of MARV (RAVN) GP,RAVN GPΔmucin,~ 5 °C
same,inhibition at 0.0312 µM,pseudotyped WT-EBOV [5],5.93%
same,inhibition at 0.0625 µM,pseudotyped WT-EBOV [5],21.8%
same,inhibition at 0.125 µM,pseudotyped WT-EBOV [5],41.2%
same,inhibition at 0.25 µM,pseudotyped WT-EBOV [5],66.6%
same,inhibition at 0.5 µM,pseudotyped WT-EBOV [5],88.5%
same,inhibition of pseudotyped vesicular stomatitis virus (VSV),[6],no inhibition
same,CC50,in vitro,26.9 ± 2.4 µM
same,Toremifene at 10 µM (% Infection),pseudotyped WT-MARV [2],3%
same,IC50,pseudotyped WT-MARV [2],1.6 ± 0.6 µM
CCN(CC)CCCC(C)Nc1ccnc2cc(Cl)ccc12 (stereo not drawn) [chloroquine],IC50,[7],3.3 µM
CNCCCN1c2ccccc2CCc2ccccc21 [desipramine],Ebola entry inhibition in screen of FDA approved drugs,Ebola,not Ebola entry inhibitors
same,accumulation in lysosomes,lysosomes,accumulate in lysosomes
CC(C)NCC(O)COc1cccc2ccccc12 (stereo not drawn) [propranolol],Ebola entry inhibition in screen of FDA approved drugs,Ebola,not Ebola entry inhibitors
same,accumulation in lysosomes,lysosomes,accumulate in lysosomes
CA-074,IC50,pseudotyped WT-EBOV [1]; read-out: IC50 (µM) (EBOV),32 ± 8 µM
same,CC50,A549 cells,> 100 µM
